Values quoted from earlier work in US20040121025A1, “Oral composition for the treatment and prevention of bone loss” (priority 2002, published 2004).

Experiments:
[1] = system: bone demineralization / bone loss; details: with supplemental calcium
[2] = system: parathyroid hormone, vitamin D, prostaglandin E2, and interleukin 1-beta; details: animal study, prostaglandin E2, interleukin 1-beta
[3] = system: parathyroid-stimulated osteoclastic activity; details: ipriflavone supplementation in rats
estrogen like effects = details: unlike many of the other isoflavones
bone mass [4] = system: bone mass
osteoporosis [5] = details: elderly women over the age of 65
bone loss [6] = details: men
bone mass [7] = details: 200 mg three times daily; two years; women age 50-65; placebo groups had significant bone loss
osteoporosis [8] = details: including a form of vitamin D commonly used for osteoporosis
bone mineral density = details: women treated with Lupron for six months; supplemental calcium; placebo decreased significantly
bone loss [9] = details: premenopausal women
bone loss [10] = details: animal studies
bone loss [11] = details: animal studies; remark: listed apart in the source

CC(C)Oc1ccc2c(=O)c(-c3ccccc3)coc2c1 [ipriflavone, 7-isopropoxysioflavone]
safety and efficacy in halting bone loss ([1]; post-menopausal women or women who have had their ovaries removed): safe and effective in halting bone loss
halting bone demineralization ([1]; postmenopausal women): effective in halting bone demineralization
inhibition of compounds involved in increased resorption of bone [2]: inhibited a number of compounds known to be involved in increased resorption of bone
parathyroid-stimulated osteoclastic activity and resulting hypercalcemia [3]: inhibited in a dosedependent manner
estrogen like effects (estrogen like effects): does not exhibit estrogen like effects
maintaining bone mass with lower doses of estrogen (bone mass [4]; 0.15-0.30 mg/day estrogen with ipriflavone versus 0.625 mg/day or higher): equally effective in maintaining bone mass
effect on the effects of estrogen on bone (bone mass [4]; in vivo): enhance the effects of estrogen on bone
treatment of osteoporosis (osteoporosis [5]): particularly effective
preventing bone loss (bone loss [6]): effective in preventing bone loss in men
bone mass (bone mass [7]): maintained or improved slightly
effect on other bone-preserving agents (osteoporosis [8]): enhance the effect of other bone-preserving agents
bone density (bone mineral density): no changes in bone density
rapid bone loss that follows ovariectomy (bone loss [9]): prevents the rapid bone loss that follows ovariectomy
bone loss associated with long term steroid use (bone loss [10]): inhibited bone loss
bone loss associated with immobilization (bone loss [11]): inhibited bone loss
